Values quoted from earlier work, collected in patent publication US8263660B2, “Stable hyperbaric composition comprising prilocaine HCl, use of said new composition for intrathecal anaethesia, and method for manufacturing said composition” (Sintetica S.A., priority 2006, dated 2012).

Settings: intrathecal application, literature reference (4)

CCN(CC)CCOC(=O)c1ccc(N)cc1 [procaine]
inadequacy rate: ≤ 17%
